From PMC8238065, “Prodrug-based nano-delivery strategy to improve the antitumor ability of carboplatin in vivo and in vitro” (Drug Delivery, 2021) come the findings set out here.

One data set has as its system H460 tumor. The data set is described as follows: In vivo antitumor experiment in H460 tumor-bearing nude mice. As to conditions: tail vein injection twice a week for two weeks, CAR 0.75 and 1.5 mg·kg^−1, equivalent PEG-CAR-C16 5.5 and 11.0 mg·kg^−1. As for the experimental part:
The female nude mice models (5–6 weeks old, 18–22 g) used in the experiment were purchased from Unilever (London, UK), and the experiment was conducted in accordance with the principle of protection of experimental animals. To establish animal model of NSCLC, 0.2 mL of H460 cells with concentration density about 1.0 × 10^7/mL were inoculated to the left axilla of the mice. The volume of tumors was measured and recorded using a vernier caliper.
When the average tumor volume of nude mice inoculated with H460 cells grown to about 100 mm^3, the mice were randomly divided into […] (n = 6) including normal saline group (I, NS), CAR group (II, 0.75 mg·kg^−1), equivalent PEG-CAR-C16 group (IV, 5.5 mg·kg^−1), CAR group (III, 1.5 mg·kg^−1), equivalent PEG-CAR-C16 group (V, 11.0 mg·kg^−1). The mice in each group were given drugs by tail vein injection twice a week for two weeks. The volume of tumor was measured every two days and calculated according to the long diameter a and the short diameter b. The tumor inhibition rate is expressed as follows: tumor volume (Vt)=a×b^2/2.

The next data set has as its system H460 cells. The data set is described as follows: MTT cytotoxicity, H460 cells. The format is cell-based. Conditions: 500 μM, 72 h. On the procedure:
The NSCLC A549 and H460 cells were incubated in 1640 medium containing 10% fetal bovine serum albumin, and these cells were stored in a humidified environment of 37 °C and 5% carbon dioxide.
In order to investigate the cytotoxicity of PEG-CAR-C16 micelles, the cell inhibition rates of A549 and H460 cells were determined by the MTT. Primarily, A549 and H460 cell lines were respectively cultured in 1640 culture medium, then transferred into a 96-well plate and incubated for 24 h under the condition of 37 °C, 5% CO2. Then, CAR and PEG-CAR-C16 micelles solution with different concentrations (15–500 μM) were added into the 96-well plate and incubated for 24, 48, and 72 h, respectively. After added with 10 μL of MTT solution to each well, the cells were incubated at 37 °C for 4 h again. Finally, the solution was removed, 100 μL of DMSO was then added to dissolve the produced formazan crystals and the […] were recorded by microplate reader. The cytotoxicity of PEG-CAR-C16 micelles could be expressed by cell inhibition rate.

Data set [1] can be described thus: In vivo pharmacokinetics of Pt after intravenous injection (ICP-MS). Also on record: species or system Wistar rats. Conditions: Pt in rats, equivalent CAR dose 1.5 mg·kg^−1. On the procedure:
To conduct the pharmacokinetic tests, six female Wistar rats (Harlan, Israel, 200 ± 20 g) were randomly administered into two groups primarily. The CAR solution was prepared by dissolving CAR in 5% glucose solution, and the PEG-CAR-C16 polymer micelles were prepared by hydrating the thin film using 5% glucose solution during the micelle formation. Then CAR and PEG-CAR-C16 polymer micelles (the equivalent CAR does was 1.5 mg·kg^−1) were injected intravenously. After collected from the treated […] within a specified time point, the blood samples were centrifuged at 3000 rpm for 10 min, and then the centrifuged samples were frozen at −20 °C for further use. All the blood samples were processed by microwave digestion and then the Pt concentration was examined by using inductively coupled plasma mass spectrometry (ICP-MS). The representative pharmacokinetic parameters were calculated by DAS2.0.

SMILES strings stand for the structures.

As for `N.N.O=C([O-])C1(C(=O)[O-])CCC1.[Pt+2]` [CAR, Carboplatin], the “tumor volume growth / tumor inhibition effect” value in the data set with H460 tumor is recorded as “could control the growth of tumor volume effectively”. The compound further gave a cell viability rate in the data set with H460 cells of 51.6%. Further, in data set [1], the “AUC0–∞” value came out at 4.84 ± 1.58 mg·L^–1·h, the CL is listed as 0.57 ± 0.11 L·h^–1·kg^–1, the “MRT0–∞” value was found to be 4.72 ± 0.91 h and the Vd amounted to 0.66 ± 0.15 L·kg^–1. In addition, the t1/2 in data set [1] is on record as 1.90 ± 1.91 h.
